Measurements from patent US12037334B2, “Inhibitors of VAP-1” (ACUCELA INC., priority 2018, dated 2024).

Tests used:
Type in all cases: biochemical
rhVAP-1 = target: T1, rhVAP-1 (Homo sapiens, UniProt Q16853); assay: VAP-1 Assay (fluorometric, Amplex Red/HRP, benzylamine substrate); details: rhVAP-1, benzylamine 50 μM, 30 minutes at 37° C., 10 mM NaHCO3 pH 7.4
T1 construct: purchased R&D Systems
T1 sequence (Q16853 1-763): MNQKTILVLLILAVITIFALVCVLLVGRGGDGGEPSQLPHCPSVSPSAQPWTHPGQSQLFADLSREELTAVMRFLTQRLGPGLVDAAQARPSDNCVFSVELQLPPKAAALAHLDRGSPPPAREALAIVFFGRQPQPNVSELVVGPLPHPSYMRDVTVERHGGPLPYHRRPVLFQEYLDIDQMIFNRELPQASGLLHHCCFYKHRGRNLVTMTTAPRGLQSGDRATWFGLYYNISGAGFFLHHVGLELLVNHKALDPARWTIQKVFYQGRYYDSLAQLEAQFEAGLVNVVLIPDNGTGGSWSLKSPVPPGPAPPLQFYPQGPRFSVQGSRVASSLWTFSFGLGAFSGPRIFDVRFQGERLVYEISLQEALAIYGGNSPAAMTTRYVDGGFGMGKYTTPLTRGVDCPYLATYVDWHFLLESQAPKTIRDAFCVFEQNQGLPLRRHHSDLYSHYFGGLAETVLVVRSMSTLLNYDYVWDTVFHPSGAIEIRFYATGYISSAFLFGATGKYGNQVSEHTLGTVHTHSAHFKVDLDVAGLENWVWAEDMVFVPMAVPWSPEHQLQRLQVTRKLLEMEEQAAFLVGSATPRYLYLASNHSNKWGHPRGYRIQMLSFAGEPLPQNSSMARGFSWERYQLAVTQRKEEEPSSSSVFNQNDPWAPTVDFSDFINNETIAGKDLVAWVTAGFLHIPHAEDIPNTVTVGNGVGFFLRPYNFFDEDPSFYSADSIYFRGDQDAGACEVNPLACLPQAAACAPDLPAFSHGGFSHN
Procedure: The capability of compounds described herein to inhibit the enzymatic activity of vascular adhesion protein-1 (VAP-1) was determined by fluorometric assay. The assay procedure provided by R&D Systems was modified slightly for use as an inhibitor screening assay. The assay measured the H2O2 generated from the oxidative deamination of benzylamine by rhVAP-1 by converting Amplex® Red to the fluorescent product, resorufin, via horseradish peroxidase (HRP) and H2O2. Reaction buffer was 10 mM NaHCO3, pH 7.4. A standard curve was prepared by serially diluting H2O2 in reaction buffer. A 10 μM solution of resorufin was prepared in reaction buffer and was dispensed to 2 wells. These wells served as positive control for maximum fluorescence. Reaction buffer was added to the individual wells so that the final volume in each well was 100 μL. Amplex Red was diluted to 1 mM in reaction buffer. A 10U stock of HRP was prepared in reaction buffer. A reaction cocktail was prepared by mixing equal parts 1 mM Amplex Red with 10U HRP with 3 parts reaction buffers. The reaction cocktail was added to the appropriate wells, so that that final concentration in the well was 0.05 mM Amplex Red and 0.5U HRP. A 200 μM solution of benzylamine was prepared in reaction buffer. Benzylamine was added to the appropriate wells so that the final concentration was 50 μM. Inhibitors were diluted in DMSO to 20× and distributed to the appropriate wells. UP-1207 served a positive control. rhVAP-1 was purchased from R&D Systems. The concentration used for each lot was determined so that the activity was equal to the first lot. Two wells were left blank as controls. The plate was incubated for 30 minutes at 37° C., protected from light under foil. The plate was read at 530/35 emission and 590/35 excitation. Data processing was performed using Excel and Prism software.
The capability of compounds described herein to inhibit the enzymatic activity of vascular adhesion protein-1 (VAP-1) was determined by fluorometric assay. The assay procedure provided by R&D Systems was modified slightly for use as an inhibitor screening assay. The assay measured the H2O2 generated from the oxidative deamination of benzylamine by rhVAP-1 by converting Amplex® Red to the fluorescent product, resorufin, via horseradish peroxidase (HRP) and H2O2. Amplex Red, HRP, Benzylamine, inhibitors (with DMSO as vehicle, 0.5% v/v) and rhVAP-1 were added to the wells. Assay was conducted in 10 mM NaHCO3, pH 7.4. A standard curve was prepared by serially diluting H2O2 in reaction buffer. The plate was incubated for 30 minutes at 37° C., protected from light under foil. The plate was read at 530/35 emission and 590/35 excitation. Data processing was performed using Prism software.

rhMAO-B = target: T2, rhMAO-B (Homo sapiens, UniProt P27338); assay: MAO Assay (modified Promega MAO-Glo), MAO-B inhibition; details: substrate 1 μM, 1 hour at room temperature
T2 construct: purchased Sigma
T2 sequence (P27338 1-520): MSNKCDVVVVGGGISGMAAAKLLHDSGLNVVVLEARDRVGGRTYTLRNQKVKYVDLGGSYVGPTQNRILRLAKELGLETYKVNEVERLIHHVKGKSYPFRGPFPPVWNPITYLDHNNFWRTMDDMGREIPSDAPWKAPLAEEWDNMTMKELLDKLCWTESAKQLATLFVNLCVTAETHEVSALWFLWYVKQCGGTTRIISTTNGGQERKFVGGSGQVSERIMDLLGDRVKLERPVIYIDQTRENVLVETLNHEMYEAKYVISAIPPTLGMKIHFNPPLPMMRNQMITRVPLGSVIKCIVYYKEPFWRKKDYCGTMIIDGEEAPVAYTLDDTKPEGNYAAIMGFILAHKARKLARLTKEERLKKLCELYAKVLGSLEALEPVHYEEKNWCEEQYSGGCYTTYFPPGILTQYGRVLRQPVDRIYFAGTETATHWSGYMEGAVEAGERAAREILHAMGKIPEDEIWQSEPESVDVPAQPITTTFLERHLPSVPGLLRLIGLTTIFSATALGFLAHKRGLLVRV
Procedure: (§1) The capability of compounds described herein to inhibit MAO was determined using a modified Promega MAO-Glo™ assay kit. The substrate ((4S)-4,5-dihydro-2-(6-hydroxybenzothiazolyl)-4-thiazolecarboxylic acid) was converted by MAO to produce methyl ester luciferin. The luciferin was then converted by luciferase to produce oxyluciferin and light. The light was measured using a luminescence setting on the plate reader. A standard curve was prepared by serially diluting luciferin in reaction buffer. The standard kit reaction buffer was used—100 mM HEPES (pH 7.5), 5% glycerol. The substrate was dispensed into the wells so that the final concentration for MAO-A inhibition assay would be 10 μM and MAO-B inhibition assay would be 1 μM. Inhibitors were diluted in DMSO to 4× and distributed to the appropriate wells. Clorgyline and Deprenyl served as positive controls. rhMAO-A and rhMAO-B were purchased from Sigma. MAO-A or MAO-B was added to the appropriate wells. The plate was incubated for 1 hour, at room temperature with gentle shaking (90 rpm). The detection agent was added at equal volume (48 μL detection agent to 48 μL reaction). The plate was incubated for 20 minutes, at room temperature with gentle shaking (90 rpm). The plate luminescence was read. Data processing was performed using Prism software.
(§2) The capability of compounds described herein to inhibit MAO was determined using a modified Promega MAO-Glo™ assay. Test compounds, substrate and enzyme were incubated per manufacturer instructions for lhour, at room temperature with gentle shaking (90 rpm) before addition of detection agent. The detection agent was added at equal volume (48 μL detection agent to 48 μL reaction). The plate was incubated for 20 minutes, at room temperature with gentle shaking (90 rpm). The plate luminescence was read. Data processing was performed using Prism software.

rhMAO-A = target: T3, rhMAO-A (Homo sapiens, UniProt P21397); assay: MAO Assay (modified Promega MAO-Glo), MAO-A inhibition; details: substrate 10 μM, 1 hour at room temperature
T3 construct: purchased Sigma
T3 sequence (P21397 1-527): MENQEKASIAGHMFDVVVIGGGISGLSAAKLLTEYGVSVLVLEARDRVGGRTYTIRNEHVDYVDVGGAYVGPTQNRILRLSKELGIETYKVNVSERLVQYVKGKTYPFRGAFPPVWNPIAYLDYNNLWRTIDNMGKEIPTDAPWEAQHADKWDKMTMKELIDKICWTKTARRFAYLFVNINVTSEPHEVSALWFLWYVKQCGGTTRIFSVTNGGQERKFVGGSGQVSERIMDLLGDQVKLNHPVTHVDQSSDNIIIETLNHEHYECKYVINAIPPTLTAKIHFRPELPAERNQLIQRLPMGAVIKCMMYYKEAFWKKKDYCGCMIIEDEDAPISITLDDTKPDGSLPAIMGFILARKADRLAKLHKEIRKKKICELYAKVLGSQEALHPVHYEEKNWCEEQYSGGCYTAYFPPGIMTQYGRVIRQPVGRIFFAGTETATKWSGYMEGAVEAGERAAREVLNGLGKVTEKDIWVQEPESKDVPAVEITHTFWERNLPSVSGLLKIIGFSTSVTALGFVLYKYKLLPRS
Procedure: as §1, §2

| IC50 (rhVAP-1) [nM] | IC50 (rhMAO-B) [nM] | IC50 (rhMAO-A; class symbols) [µM] | IC50 (rhMAO-A; cells printed as bound in μM) [µM] | Compound |
| --- | --- | --- | --- | --- |
| < 100 | 1000 to 10000 | 1 to 10 |  | NC/C(=C/F)COc1ccc2nc(C3CCCC3)cn2c1 [Example 9, (Z)-2-(((2-cyclopentylimidazo[1,2-a]pyridin-6-yl)oxy)methyl)-3-fluoroprop-2-en-1-amine 4-methylbenzenesulfonate] |
| < 100 | 100 to 1000 | 1 to 10 |  | CCCCc1cc2cc(OC/C(=C/F)CN)ccn2n1 [Example 8, (E)-2-(((2-butylpyrazolo[1,5-a]pyridin-5-yl)oxy)methyl)-3-fluoroprop-2-en-1-amine bis(4-methylbenzenesulfonate)] |
| < 100 | 100 to 1000 | 10 to 30 |  | CCCCc1cc2ccc(OC/C(=C/F)CN)cn2n1 [Example 6] |
| < 100 | 1000 to 10000 | 10 to 30 |  | CCCCc1cn2cc(OC/C(=C\F)CN)ccc2n1 [Example 5, (Z)-2-(((2-butylimidazo[1,2-a]pyridin-6-yl)oxy)methyl)-3-fluoroprop-2-en-1-amine 4-methylbenzenesulfonate] |
| < 100 | 1000 to 10000 |  | > 50 | CCCCc1cn2cc(OC/C(=C/F)CNC(=O)OC(C)(C)C)cnc2n1 [Example 10, tert-butyl (E)-(2-(((2-butylimidazo[1,2-a]pyrimidin-6-yl)oxy)methyl)-3-fluoroallyl)carbamate] |
| < 100 | 100 to 1000 | 10 to 30 |  | CCCCc1nc2ccc(OC/C(=C/F)CN)cn2n1 [Example 4, (E)-2-(((2-butyl-[1,2,4]triazolo[1,5-a]pyridin-6-yl)oxy)methyl)-3-fluoroprop-2-en-1-amine 4-methylbenzenesulfonate] |
| < 100 | 1000 to 10000 | 10 to 30 |  | CCCCc1cn2cc(OC/C(=C/F)CN)ccc2n1 [Example 1, (E)-2-(((2-butylimidazo[1,2-a]pyridin-6-yl)oxy)methyl)-3-fluoroprop-2-en-1-amine bis(4-methylbenzenesulfonate)] |
| < 100 | 10000 to 30000 | 10 to 30 |  | CCCCc1cn2ccc(OC/C(=C/F)CN)cc2n1 [Example 2, (E)-2-(((2-butylimidazo[1,2-a]pyridin-7-yl)oxy)methyl)-3-fluoroprop-2-en-1-amine 4-methylbenzenesulfonate] |
| < 100 | 1000 to 10000 | 10 to 30 |  | CCCCc1nc2cc(OC/C(=C/F)CN)ccn2n1 [Example 3, (E)-2-(((2-butyl-[1,2,4]triazolo[1,5-a]pyridin-7-yl)oxy)methyl)-3-fluoroprop-2-en-1-amine 4-methylbenzenesulfonate] |
| < 100 | 100 to 1000 |  | > 50 | CCCCc1cn2nc(OC/C(=C/F)CN)ccc2n1 [Example 7, (E)-2-(((2-butylimidazo[1,2-b]pyridazin-6-yl)oxy)methyl)-3-fluoroprop-2-en-1-amine 4-methylbenzenesulfonate] |
